Patent publication US10072055B2, “Anti-inflammatory pharmaceutical products” (Resother Pharma APS, priority 2011, dated 2018)
Entries after “also recorded” stand apart in the source; their conditions may differ. Ends that are not written are not given here.

Columns and labels:
[1] = target: T1, FPR2 (Homo sapiens, UniProt P25090); assay: Binding affinity to FPR2
T1 sequence (P25090 1-351): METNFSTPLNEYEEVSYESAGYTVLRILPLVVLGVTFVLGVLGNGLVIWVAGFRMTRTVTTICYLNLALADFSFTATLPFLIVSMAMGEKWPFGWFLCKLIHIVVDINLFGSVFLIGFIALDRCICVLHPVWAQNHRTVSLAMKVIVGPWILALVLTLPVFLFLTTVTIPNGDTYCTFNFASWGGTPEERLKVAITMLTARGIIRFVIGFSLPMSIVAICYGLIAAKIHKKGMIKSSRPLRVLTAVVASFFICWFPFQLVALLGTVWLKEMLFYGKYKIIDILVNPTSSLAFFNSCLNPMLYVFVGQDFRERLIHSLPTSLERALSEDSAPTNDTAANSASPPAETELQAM

[2] = test system: reperfusion injury; assay: Myocardial ischemia/reperfusion injury, infarct size (LADCA occlusion); type: in vivo, C57/B16 mice; conditions: i.v. bolus at beginning of reperfusion; 25 min ischemia, 120 min reperfusion
Experimental: (§1) Infarct size in C57/B16 mice (˜30 g body weight) following 25 min ischemia (occlusion of the left anterior descending coronary artery; [LADCA]) and 120 min reperfusion. Vehicle or UGP022 (SEQ ID NO:5) were administered i.v. (over 5 sec bolus) at beginning of reperfusion. Area at Risk was measured following re-occlusion and injection of Evans blue dye. Infarct size was determined following NBT staining of the Area at Risk. Results are mean±SEM of 4 mice per group; **P<0.01
as §1, with “(LADCA occlusion)” for “(occlusion of the left anterior descending coronary artery; [LADCA])”, “Vehicle, UGP025” for “Vehicle or UGP022”, “NO:7) (5 μg) or UGP026 (SEQ ID NO:8) (5 μg)” for “NO:5)”

[3] = Anti-inflammatory properties, test not specified
[4] = target: T2, HNE (Homo sapiens, UniProt P08246); assay: In vitro degradation/digest in the presence of HNE; type: in vitro ADME
T2 sequence (P08246 30-267): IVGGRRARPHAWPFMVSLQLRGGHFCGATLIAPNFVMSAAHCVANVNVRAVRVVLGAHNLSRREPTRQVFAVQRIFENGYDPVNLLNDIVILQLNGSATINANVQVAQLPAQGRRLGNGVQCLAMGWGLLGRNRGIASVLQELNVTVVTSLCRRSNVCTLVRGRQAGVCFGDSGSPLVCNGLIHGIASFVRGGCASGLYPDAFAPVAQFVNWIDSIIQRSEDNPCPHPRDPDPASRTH
Experimental: FIG. 9 is a logarithmic plot of the degradation over time of three polypeptides of the present disclosure, UGP022 (SEQ ID NO: 5), UGP025 (SEQ ID NO: 7) and UGP026 (SEQ ID NO: 8) in the presence of HNE, a protease implicated in the in vivo cleavage of Annexin 1.
(§2) In an attempt to improve the potency and increase the half-life of the UGP022 peptide of the present disclosure (SEQ ID NO: 5), a series of in vitro PR3 and FINE digests were conducted. […] This cleavage site is not believed to have been identified in the literature.
(§3) Degradation tests of three polypeptides of the present disclosure, UGP022 (SEQ ID NO:5), UGP025 (SEQ ID NO:7) and UGP026 (SEQ ID NO:8) in the presence of PR3, a protease implicated in the in vivo cleavage of Annexin 1, indicated better stability for polypeptides with Leucine substitution at position 24 relative to a polypeptide lacking that feature. Position 24 corresponds to position 25 of Annexin 1 because all tested polypeptides lack the methionine at position 1 of natural Annexin. A 47-residue polypeptide outperformed an otherwise identical 49-residue polypeptide. Similar results were obtained in degradation tests in the presence of FINE.
(§4) FIG. 9 is a logarithmic plot of the degradation over time of three polypeptides of the present disclosure, UGP022 (SEQ ID NO:5), UGP025 (SEQ ID NO:7) and UGP026 (SEQ ID NO:8) in the presence of FINE, a protease implicated in the in vivo cleavage of Annexin 1. […] Also, a 47-residue polypeptide amidated at its C-terminus outperformed an otherwise identical 49-residue polypeptide amidated at its C-terminus.

[5] = target: T3, PR3 (Homo sapiens, UniProt P24158); assay: In vitro degradation/digest in the presence of PR3; type: in vitro ADME
T3 sequence (P24158 28-248 limits assumed): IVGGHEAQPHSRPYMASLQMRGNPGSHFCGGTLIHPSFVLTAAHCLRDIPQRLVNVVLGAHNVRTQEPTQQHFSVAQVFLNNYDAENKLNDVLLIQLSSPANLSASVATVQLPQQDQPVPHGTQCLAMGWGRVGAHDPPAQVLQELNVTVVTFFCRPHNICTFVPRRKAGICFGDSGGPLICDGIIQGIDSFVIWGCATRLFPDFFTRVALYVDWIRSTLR
Experimental: FIG. 8 is a logarithmic plot of the degradation over time of three polypeptides of the present disclosure, UGP022 (SEQ ID NO: 5), UGP025 (SEQ ID NO: 7) and UGP026 (SEQ ID NO: 8) in the presence of PR3, a protease implicated in the in vivo cleavage of Annexin 1.
as §2, §3
as §4, with “FIG. 8” for “FIG. 9”, “of PR3,” for “of FINE,”

[6] = test system: phagocytosis of apoptotic cells; assay: Phagocytosis of apoptotic PMN (efferocytosis); type: cell-based
Excerpt: FIG. 5 is a series of bar charts reporting the ability of three polypeptides (UGP022 (SEQ ID NO:5); UGP025 (SEQ ID NO:7) and UGP026 (SEQ ID NO:8))_of the present disclosure, at different concentrations, to mimic an Annexin A1 property of inducing phagocytosis of apoptotic cells.
In recent years important pro-resolving properties have been ascribed to Annexin A1, namely the induction of phagocytosis of apoptotic cells by macrophages and cells alike. This effect is also reliant on FPR2 and shared with other important pro-resolving mediators including the lipoxins and the resolvins.
FIG. 5 is a series of bar charts reporting the ability of three polypeptides (UGP022 (SEQ ID NO:5); UGP025 (SEQ ID NO:7) and UGP026 (SEQ ID NO:8)) of the present disclosure, at different concentrations, to mimic an Annexin A1 property of inducing phagocytosis of apoptotic cells.

Substance	affinity to FPR2 over FPR1 [1]	tissue protection / reduction of reperfusion injury (infarct size) [2]	anti-inflammatory properties in vitro and in vivo [3]	stability / resistance to HNE degradation [4]	stability / resistance to PR3 degradation [5]	induction of phagocytosis of apoptotic PMN [6]	binding affinity to FPR2 [1]	in vitro results, amidated vs free acid precursor [3]	cleavage sites by HNE ([4]; in vitro digest)	cleavage sites by PR3 ([5]; in vitro digest)
AMVSEFLKQAWFIENEEQEYVQTLKSSKGGPGSAVSPYPTFNPSSDVAA-NH2 [UGP026, Leu25-ANXA1(2-50)-NH2]	retain a higher affinity to FPR2 over FPR1	affording cardioprotection; also recorded: reduce the risk of reperfusion injury relative to a vehicle-only control	possess anti-inflammatory properties both in vitro and in vivo	more resistant to PR3 and FINE than the UGP022 peptide	more resistant to PR3 and FINE than the UGP022 peptide	promoted phagocytosis of the apoptotic PMN	–	–	–	–
AMVSEFLKQAWFIENEEQEYVQTVKSSKGGPGSAVSPYPTFNPSSDVAA-NH2 [UGP022, ANXA1(2-50)-NH2]	–	potent tissue protective properties; also recorded: reduce the risk of reperfusion injury relative to a vehicle-only control	–	–	–	displaying the higher ability to induce this process	binding affinity to the FPR2 in the nanomolar range; also recorded: showing the highest affinity	shows better in vitro results than with a free acid precursor	Ala 10 (Ala11 relative to Annexin 1) and Val 21 (Val22 relative to Annexin 1); also recorded: Val 35 (Val36 relative to Annexin 1) was only cleaved by FINE; also recorded: Val 24 (Val25 relative to Annexin 1)	Ala 10 (Ala11 relative to Annexin 1) and Val 21 (Val22 relative to Annexin 1); also recorded: Val 24 (Val25 relative to Annexin 1)
AMVSEFLKQAWFIENEEQEYVQTLKSSKGGPGSAVSPYPTFNPSSDV-NH2 [UGP025, Leu25-ANXA1(2-48)-NH2]	retain a higher affinity to FPR2 over FPR1	affording cardioprotection; also recorded: reduce the risk of reperfusion injury relative to a vehicle-only control	seeming more potent	more resistant to PR3 and FINE than the UGP022 peptide	more resistant to PR3 and FINE than the UGP022 peptide	promoted phagocytosis of the apoptotic PMN	seems to have a higher affinity to FPR2 than does UGP026	–	–	–
